From patent publication US20230165251A1, “SUBSTITUTED TOLYL FUNGICIDES AND THEIR MIXTURES” (FMC Corporation, priority 2020, published 2023)

Columns and labels:
Format in all cases: in vivo
Phakopsora pachyrhizi [1] = assay: Test G: Compound 41 or 63 alone and in mixtures on soybean seedlings, Asian soybean rust, Colby synergy
Source text: The general protocol for preparing test compositions for TEST G was as follows: Compound 41, Compound 63, N-(2,2,2-trifluoroethyl)-2-[[4-[5-(trifluoromethyl)-1,2,4-oxadiazol-3-yl]phenyl]methyl]-4-oxazolecarboxamide (b54.11a), ethyl 1-[[4-[[(1Z)-2-ethoxy-3,3,3-trifluoro-1-propen-1-yl]oxy]phenyl]methyl]-1H-pyrazole-4-carboxylate (b54.11c), ethyl 1-[[4-[[2-(trifluoromethyl)-1,3-dioxolan-2-yl]methoxy]phenyl]methyl]-1H-pyrazole-4-carboxylate (b54.11d), azoxystrobin, benzovindiflupyr, bixafen, chlorothalonil, cyproconazole, epoxiconazole, fenpropidin, fenpropimorph, fluindapyr, flutriafol, fluxapyroxad, inpyrfluxam, picoxystrobin, prothioconazole, pydiflumetofen, tebuconazole and trifloxystrobin were obtained as unformulated, technical-grade materials. Copper hydroxide and mancozeb was obtained as a formulated product marketed under the trademarks KOCIDE 3000 and MANZATE, respectively. Unformulated materials were first dissolved in acetone and then suspended at the desired concentration (in ppm) in acetone and purified water (50/50 mix by volume) containing 250 ppm of the surfactant Trem® 014 (polyhydric alcohol esters). Formulated materials were dispersed in sufficient water to give the desired concentration, and neither organic solvent nor surfactant was added to the suspension. The resulting test mixtures were then used in TEST G. The tests were run on four individual plants and the results reported as the mean average of the four plants.
The presence of a synergistic effect between two active ingredients was established with the aid of the Colby equation (see Colby, S. R. “Calculating Synergistic and Antagonistic Responses of Herbicide Combinations”, Weeds, (1967), 15, 20-22):
Using the method of Colby, the presence of a synergistic interaction between two active ingredients is established by first calculating the predicted activity, p, of the mixture based on activities of the two components applied alone. If p is lower than the experimentally established effect, synergism has occurred. In the equation above, A is the fungicidal activity in percentage control of one component applied alone at rate x. The B term is the fungicidal activity in percentage control of the second component applied at rate y. The equation estimates p, the expected fungicidal activity of the mixture of A at rate x with B at rate y if their effects are strictly additive and no interaction has occurred.
The test mixture was sprayed to the point of run-off on soybean seedlings. The following day the seedlings were inoculated with a spore suspension of Phakopsora pachyrhizi (the causal agent of Asian soybean rust) and incubated in a saturated atmosphere at 22° C. for 24 h and then moved to a growth chamber at 22° C. for 8 days, after which time visual disease ratings were made.
Results for TEST G are given below in Tables B-1 through J-1 for Compound 41, and Tables B-2 through J-2 for Compound 63. Each table corresponds to a set of evaluations performed together at the same time. In each table, a rating of 100 indicates 100% disease control and a rating of 0 indicates no disease control (relative to the controls). Columns labeled “Obsd” indicate the average of results observed from test run on four individual plants. Columns labeled “Exp” indicate the expected value for each treatment mixture using the Colby equation.

[2] = system: Puccinia recondita f. sp. tritici; assay: Test B: preventive spray on wheat seedlings, wheat leaf rust; conditions: Rate 10 ppm
Source text: (§1) General protocol for preparing test suspensions for Tests A-F: the test compounds were first dissolved in acetone in an amount equal to 3% of the final volume and then suspended at the desired concentration (in ppm) in acetone and purified water (50/50 mix by volume) containing 250 ppm of the surfactant PEG400 (polyhydric alcohol esters). The resulting test suspensions were then used in Tests A-F.
The test solution was sprayed to the point of run-off on wheat seedlings. The following day the seedlings were inoculated with a spore suspension of Puccinia recondita f. sp. tritici (the causal agent of wheat leaf rust) and incubated in a saturated atmosphere at 20° C. for 24 h, and then moved to a growth chamber at 20° C. for 7 days, after which time disease ratings were made.
(§2) A rating of 100 indicates 100% disease control and a rating of 0 indicates no disease control (relative to the controls). A dash (-) indicates the compound was not tested.

Phakopsora pachyrhizi [3] = assay: Test D: preventive spray on soybean seedlings, Asian soybean rust; conditions: Rate 10 ppm
Source text: as §1
The test solution was sprayed to the point of run-off on soybean seedlings. The following day the seedlings were inoculated with a spore suspension of Phakopsora pachyrhizi (the causal agent of Asian soybean rust) and incubated in a saturated atmosphere at 22° C. for 24 h and then moved to a growth chamber at 22° C. for 8 days, after which time visual disease ratings were made.
as §2

| Structure (SMILES) | Test B disease control rating [2] | Test D disease control rating (Phakopsora pachyrhizi [3]) | other results |
| --- | --- | --- | --- |
| OC(Cn1cncn1)(c1ccc(F)cc1)c1ccccc1F (stereo not shown) [Flutriafol, flutriafol] |  |  | pest or weed control at 544.265 ppm (Phakopsora pachyrhizi [1]; Phakopsora pachyrhizi, flutriafol alone 544.265 ppm, read-out: Test G Obsd): 13%; pest or weed control at 1124.02 ppm (Phakopsora pachyrhizi [1]; Phakopsora pachyrhizi, flutriafol alone 1124.021 ppm, read-out: Test G Obsd): 52% |
| CO/C=C(/C(=O)OC)c1ccccc1Oc1cc(Oc2ccccc2C#N)ncn1 [Azoxystrobin, azoxystrobin] |  |  | Test G Obsd (Phakopsora pachyrhizi [1]; azoxystrobin alone 95.873 ppm): 70%; Test G Obsd (Phakopsora pachyrhizi [1]; azoxystrobin alone 169.226 ppm): 90% |
| CC(C)(C)C(O)(CCc1ccc(Cl)cc1)Cn1cncn1 (stereo not shown) [Tebuconazole, tebuconazole] |  |  | pest or weed control at 486.921 ppm (Phakopsora pachyrhizi [1]; Phakopsora pachyrhizi, tebuconazole alone 486.921 ppm, read-out: Test G Obsd): 30%; pest or weed control at 841.166 ppm (Phakopsora pachyrhizi [1]; Phakopsora pachyrhizi, tebuconazole alone 841.166 ppm, read-out: Test G Obsd): 55% |
| C[C@@H]1CC(C)(C)c2cccc(NC(=O)c3cn(C)nc3C(F)F)c21 [Inpyrfluxam, inpyrfluxam] |  |  | Test G Obsd (Phakopsora pachyrhizi [1]; inpyrfluxam alone 0.448 ppm): 56%; Test G Obsd (Phakopsora pachyrhizi [1]; inpyrfluxam alone 1.059 ppm): 79% |
| CON=C(C(=O)OC)c1ccccc1CON=C(C)c1cccc(C(F)(F)F)c1 [Trifloxystrobin, trifloxystrobin] |  |  | pest or weed control at 20.511 ppm (Phakopsora pachyrhizi [1]; Phakopsora pachyrhizi, trifloxystrobin alone 20.511 ppm, read-out: Test G Obsd): 46%; pest or weed control at 35.31 ppm (Phakopsora pachyrhizi [1]; Phakopsora pachyrhizi, trifloxystrobin alone 35.310 ppm, read-out: Test G Obsd): 76% |
| Cn1cc(C(=O)Nc2cccc3c2[C@@H]2CC[C@H]3C2=C(Cl)Cl)c(C(F)F)n1 (racemic) [Benzovindiflupyr, benzovindiflupyr] |  |  | Test G Obsd (Phakopsora pachyrhizi [1]; benzovindiflupyr alone 0.606 ppm): 67%; Test G Obsd (Phakopsora pachyrhizi [1]; benzovindiflupyr alone 0.980 ppm): 67% |
| CC1CC(C)(C)c2c(F)ccc(NC(=O)c3cn(C)nc3C(F)F)c21 (stereo not shown) [Fluindapyr, fluindapyr] |  |  | Test G Obsd (Phakopsora pachyrhizi [1]; Table C-1, fluindapyr 8.820 ppm alone): 61%; Test G Obsd (Phakopsora pachyrhizi [1]; Table C-1, fluindapyr 15.230 ppm alone): 79%; Test G Obsd (Phakopsora pachyrhizi [1]; Table C-2, fluindapyr 8.820 ppm alone): 61%; Test G Obsd (Phakopsora pachyrhizi [1]; Table C-2, fluindapyr 15.230 ppm alone): 79% |
| Cn1cc(C(=O)Nc2ccc(F)cc2-c2ccc(Cl)c(Cl)c2)c(C(F)F)n1 [Bixafen, bixafen] |  |  | Test G Obsd (Phakopsora pachyrhizi [1]; Table C-1, bixafen 11.327 ppm alone): 54%; Test G Obsd (Phakopsora pachyrhizi [1]; Table C-1, bixafen 19.525 ppm alone): 55%; Test G Obsd (Phakopsora pachyrhizi [1]; Table C-2, bixafen 11.327 ppm alone): 54%; Test G Obsd (Phakopsora pachyrhizi [1]; Table C-2, bixafen 19.525 ppm alone): 55% |
| Fc1ccc([C@]2(Cn3cncn3)O[C@H]2c2ccccc2Cl)cc1 (racemic) [Epoxiconazole, epoxiconazole] |  |  | pest or weed control at 46.795 ppm (Phakopsora pachyrhizi [1]; Phakopsora pachyrhizi, epoxiconazole alone 46.795 ppm, read-out: Test G Obsd): 23%; pest or weed control at 89.631 ppm (Phakopsora pachyrhizi [1]; Phakopsora pachyrhizi, epoxiconazole alone 89.631 ppm, read-out: Test G Obsd): 70% |
| Cn1cc(C(=O)Nc2ccccc2-c2cc(F)c(F)c(F)c2)c(C(F)F)n1 [Fluxapyroxad, fluxapyroxad] |  |  | Test G Obsd (Phakopsora pachyrhizi [1]; Table C-1, fluxapyroxad 2.757 ppm alone): 19%; Test G Obsd (Phakopsora pachyrhizi [1]; Table C-1, fluxapyroxad 4.748 ppm alone): 52%; Test G Obsd (Phakopsora pachyrhizi [1]; Table C-2, fluxapyroxad 2.757 ppm alone): 19%; Test G Obsd (Phakopsora pachyrhizi [1]; Table C-2, fluxapyroxad 4.748 ppm alone): 52% |
| COC(=O)NCc1cc(-c2cn(-c3c(C)cc(OC)cc3C)nn2)ccc1C [compound 124] | 0% | 0% |  |
| COC(=O)NCc1cc(-c2ccn(-c3c(Cl)cccc3Cl)n2)ccc1C [compound 44] | 68% | 100% |  |
| CNc1cc(F)c(-n2ccc(-c3ccc(C)c(CNC(=O)OC)c3)n2)c(F)c1 [compound 36] | 68% | 100% |  |
| COC(=O)NCc1cc(-c2ccn(-c3c(C)cc(Cl)cc3C)n2)ccc1C [compound 49] | 68% | 99% |  |
| COC(=O)NCc1cc(-c2ccn(-c3c(F)cc(Cl)cc3Cl)n2)ccc1C [compound 51] | 100% | 100% |  |
| COC(=O)NCc1cc(-c2ccn(-c3c(F)cc(CF)cc3F)n2)ccc1C [compound 77] | 100% | 100% |  |
| COC(=O)NCc1cc(-c2ccn(-c3c(F)cccc3Br)n2)ccc1C [compound 46] | 68% | 100% |  |
| COC(=O)NCc1cc(-c2ccn(-c3c(F)cc(OCF)cc3F)n2)ccc1C [compound 73] | 100% | 100% |  |
| COC(=O)NCc1cc(-c2ccn(-c3c(F)cc([N+](=O)[O-])cc3Cl)n2)ccc1C [compound 37] | 26% | 0% |  |
| COC(=O)NCc1cc(-c2ccn(-c3c(C)cc(OC)cc3C)n2)ccc1C [compound 40] | 0% | 99% |  |
| COC(=O)NCc1cc(-c2cn(-c3c(OC)cc(OC)cc3OC)nn2)ccc1C [compound 127] | 0% | 0% |  |
| COC(=O)NCc1cc(-c2ccn(-c3c(Cl)cccc3Br)n2)ccc1C [compound 60] | 68% | 100% |  |
| COC(=O)NCc1cc(-c2ccn(-c3c(F)cc(C4CC4(F)F)cc3F)n2)ccc1C (stereo not shown) [Compound 89, methyl N-[[5-[1-[4-(2,2-difluorocyclopropyl)-2,6-difluorophenyl]-1H-pyrazol-3-yl]-2-methylphenyl]methyl]carbamate] |  |  | pest or weed control at 10 ppm ([2]; Puccinia recondita, 192 h, read-out: Test B disease control rating): 100%; pest or weed control at 10 ppm (Phakopsora pachyrhizi [3]; Phakopsora pachyrhizi, 216 h, read-out: Test D disease control rating): 100% |
| COC(=O)NCc1cc(-c2ccn(-c3c(C)cc(N)cc3C)n2)ccc1C [compound 38] | 0% | 0% |  |
| COC(=O)NCc1cc(-c2cn(-c3c(Cl)cc(OC)cc3Cl)nn2)ccc1C [compound 123] | 0% | 0% |  |
| COC(=O)NCc1cc(-c2ccn(-c3c(F)cc(Br)cc3Cl)n2)ccc1C [compound 50] | 100% | 100% |  |
| COC(=O)NCc1cc(-c2ccn(-c3c(C)cc([N+](=O)[O-])cc3C)n2)ccc1C [compound 35] | 0% | 0% |  |
| COC(=O)NCc1cc(-c2ccn(-c3c(F)cc(OC)cc3OC)n2)ccc1C [compound 34] | 28% | 96% |  |
| COC(=O)NCc1cc(-c2ccn(-c3c(F)cc(SC)cc3SC)n2)ccc1C [compound 28] | 0% | 100% |  |
